In paper PMC9697198, “Carbonic Anhydrase Inhibition Activities of Schiff’s Bases Based on Quinazoline-Linked Benzenesulfonamide” (Molecules, 2022):

Legend:
[1] = molecular target: hCA II (Homo sapiens, UniProt P00918); experiment: hCA II inhibition, stopped-flow assay; type: biochemical; settings: stopped-flow technique; mean from three different assays, errors ±5–10%
[2] = molecular target: hCA IX (Homo sapiens, UniProt Q16790); experiment: hCA IX inhibition, stopped-flow assay; type: biochemical; settings: for Selectivity Analysis hCA I/IX / Selectivity Analysis hCA II/IX: selectivity index (SI); for Selectivity Analysis hCA I/IX: ratio of Ki hCA I to Ki hCA IX; for Selectivity Analysis hCA II/IX: ratio of Ki hCA II to Ki hCA IX; for Ki: stopped-flow technique, mean from three different assays, errors ±5–10%
[3] = molecular target: hCA I (Homo sapiens, UniProt P00915); experiment: hCA I inhibition, stopped-flow assay; type: biochemical; settings: stopped-flow technique; mean from three different assays, errors ±5–10%
hCA I, sequence (P00915 whole entry): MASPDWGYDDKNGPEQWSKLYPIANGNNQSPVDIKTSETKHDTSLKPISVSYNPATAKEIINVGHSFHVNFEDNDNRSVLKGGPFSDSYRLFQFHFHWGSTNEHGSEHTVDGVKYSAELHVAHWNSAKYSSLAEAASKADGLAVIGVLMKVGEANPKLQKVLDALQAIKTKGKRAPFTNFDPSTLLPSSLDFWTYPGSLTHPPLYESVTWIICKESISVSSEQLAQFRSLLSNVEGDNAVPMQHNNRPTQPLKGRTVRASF

[4] = molecular target: hCA XII (Homo sapiens, UniProt O43570); experiment: hCA XII inhibition, stopped-flow assay; type: biochemical; settings: for Selectivity Analysis hCA I/XII / Selectivity Analysis hCA II/XII: selectivity index (SI); for Selectivity Analysis hCA I/XII: ratio of Ki hCA I to Ki hCA XII; for Selectivity Analysis hCA II/XII: ratio of Ki hCA II to Ki hCA XII; for Ki: stopped-flow technique, mean from three different assays, errors ±5–10%
hCA XII, sequence (O43570 25-354): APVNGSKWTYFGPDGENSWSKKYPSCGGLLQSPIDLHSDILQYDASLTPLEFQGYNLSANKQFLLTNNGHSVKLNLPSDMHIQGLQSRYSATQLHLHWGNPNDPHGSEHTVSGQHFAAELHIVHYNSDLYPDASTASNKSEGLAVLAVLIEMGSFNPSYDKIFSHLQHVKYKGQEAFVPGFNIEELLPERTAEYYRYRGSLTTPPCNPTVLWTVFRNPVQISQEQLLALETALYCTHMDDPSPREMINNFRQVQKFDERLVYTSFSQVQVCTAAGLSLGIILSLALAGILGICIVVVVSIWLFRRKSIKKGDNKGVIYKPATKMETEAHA

SMILES	Ki [1]	melting point	Selectivity Analysis hCA I/IX [2]	Selectivity Analysis hCA II/IX [2]	Ki [2]	Ki [3]	Selectivity Analysis hCA I/XII [4]	Selectivity Analysis hCA II/XII [4]	Ki [4]
NS(=O)(=O)c1ccc(CCn2c(SCC(=O)NN=Cc3ccc(F)cc3)nc3ccccc3c2=O)cc1 [Compound 11, 4-(2-(2-((2-(2-(4-Fluorobenzylidene)hydrazineyl)-2-oxoethyl)thio)-4-oxoquinazolin-3(4H)-yl)ethyl)benzenesulfonamide]	49.5 nM	292 to 293 °C	8.57	3.21	15.4 nM	132 nM	8.35	3.13	15.8 nM
NNC(=O)CSc1nc2ccccc2c(=O)n1CCc1ccc(S(N)(=O)=O)cc1 [Compound 3, 4-(2-(2-((2-Hydrazineyl-2-oxoethyl)thio)-4-oxoquinazolin-3(4H)-yl)ethyl)benzenesulfonamide]	16.9 nM	253 to 254 °C	1.68	0.32	52.1 nM	87.6 nM	16.22	3.12	5.4 nM
NS(=O)(=O)c1ccc(CCn2c(SCC(=O)NN=Cc3cccnc3)nc3ccccc3c2=O)cc1 [Compound 16, 4-(2-(4-Oxo-2-((2-oxo-2-(2-(pyridin-3-ylmethylene)hydrazineyl)ethyl)thio)quinazolin-3(4H)-yl)ethyl)benzenesulfonamide]	23.8 nM	263 to 264 °C	5.5	0.63	37.8 nM	208 nM	10.0	1.14	20.8 nM
CC(=NNC(=O)CSc1nc2ccccc2c(=O)n1CCc1ccc(S(N)(=O)=O)cc1)c1ccc(Br)cc1 [Compound 20, 4-(2-(2-((2-(2-(1-(4-Bromophenyl)ethylidene)hydrazineyl)-2-oxoethyl)thio)-4-oxoquinazolin-3(4H)-yl)ethyl)benzenesulfonamide]	698 nM	302 to 303 °C	13.6	7.01	99.6 nM	1360 nM	15.27	7.86	88.8 nM
CC(=NNC(=O)CSc1nc2ccccc2c(=O)n1CCc1ccc(S(N)(=O)=O)cc1)c1ccccn1 [Compound 26, 4-(2-(4-Oxo-2-((2-oxo-2-(2-(1-(pyridin-2-yl)ethylidene)hydrazineyl)ethyl)thio)quinazolin-3(4H)-yl)ethyl)benzenesulfonamide]	22.8 nM	300 to 301 °C	0.77	0.33	68.2 nM	52.8 nM	1.85	0.80	28.5 nM
CC(=NNC(=O)CSc1nc2ccccc2c(=O)n1CCc1ccc(S(N)(=O)=O)cc1)c1ccc(F)cc1 [Compound 24, 4-(2-(2-((2-(2-(1-(4-Fluorophenyl)ethylidene)hydrazineyl)-2-oxoethyl)thio)-4-oxoquinazolin-3(4H)-yl)ethyl)benzenesulfonamide]	39.5 nM	299 to 300 °C	6.55	1.38	28.5 nM	187 nM	7.35	1.55	25.4 nM
CC(=NNC(=O)CSc1nc2ccccc2c(=O)n1CCc1ccc(S(N)(=O)=O)cc1)c1cccc(Cl)c1 [Compound 22, 4-(2-(2-((2-(2-(1-(3-Chlorophenyl)ethylidene)hydrazineyl)-2-oxoethyl)thio)-4-oxoquinazolin-3(4H)-yl)ethyl)benzenesulfonamide]	339 nM	297 to 298 °C	11.51	4.50	75.3 nM	867 nM	18.49	7.23	46.9 nM
NS(=O)(=O)c1ccc(CCn2c(SCC(=O)NN=Cc3ccccc3[N+](=O)[O-])nc3ccccc3c2=O)cc1 [Compound 13, 4-(2-(2-((2-(2-(2-Nitrobenzylidene)hydrazineyl)-2-oxoethyl)thio)-4-oxoquinazolin-3(4H)-yl)ethyl)benzenesulfonamide]	569 nM	288 to 289 °C	16.95	9.73	58.5 nM	992 nM	46.34	26.60	21.4 nM
NS(=O)(=O)c1ccc(CCn2c(SCC(=O)NN=Cc3ccccc3Cl)nc3ccccc3c2=O)cc1 [Compound 5, 4-(2-(2-((2-(2-(2-Chlorobenzylidene)hydrazineyl)-2-oxoethyl)thio)-4-oxoquinazolin-3(4H)-yl)ethyl)benzenesulfonamide]	251 nM	288 to 290 °C	35.6	9.51	26.4 nM	940 nM	20.39	5.45	46.1 nM
